Measurements as given in patent publication US8318657B2, “Methods and compositions for preventing and/or treating pancreatitis” (Flinders Technologies Pty Ltd., priority 2005, dated 2012).
Entries after “also recorded” stand apart in the source; their conditions may differ. Square brackets hold non-standard residues; d marks the D form. Ends that are not written are not given here. Peptide text beside a SMILES is read from it.

Legend:
[1] = test system: mice without acute pancreatitis; experiment: Control groups: mice given galanin or galanin antagonist alone (saline, no caerulein); conditions: mice without AP
GALR2 = target: T1, GALR2 (Homo sapiens, UniProt O43603); conditions: GALR2 vs GALR1; cited from earlier work
T1 sequence (O43603 1-387): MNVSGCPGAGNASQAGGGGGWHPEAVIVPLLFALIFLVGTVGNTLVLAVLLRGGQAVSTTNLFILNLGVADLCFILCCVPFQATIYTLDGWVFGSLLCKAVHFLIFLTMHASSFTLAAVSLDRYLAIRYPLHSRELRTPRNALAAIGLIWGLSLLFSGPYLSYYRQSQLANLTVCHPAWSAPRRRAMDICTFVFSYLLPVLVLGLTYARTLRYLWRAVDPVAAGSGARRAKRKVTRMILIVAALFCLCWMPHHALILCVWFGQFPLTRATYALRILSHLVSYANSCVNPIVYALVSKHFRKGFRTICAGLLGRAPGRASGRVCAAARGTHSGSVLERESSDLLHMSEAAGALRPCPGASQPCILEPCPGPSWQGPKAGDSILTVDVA

[2] = test system: caerulein-induced acute pancreatitis (AP) in mice; experiment: Caerulein-induced acute pancreatitis in mice (mild model, 7 hourly i.p. injections) with galanin or galanin antagonists; format: in vivo, mouse (female Balb C or Swiss); conditions: mouse caerulein AP
[3] = 20 nmol/kg i.p. with each caerulein injection, reduction of AP-induced level
[4] = 40 nmol/kg i.p. with each caerulein injection, vs AP alone
[5] = dose not given (20 and 40 nmol/kg tested)
[6] = dose not given (20 and 40 nmol/kg tested), decrease of AP-induced level
[7] = 40 nmol/kg i.p. with each caerulein injection, reduction of AP-induced level

For CC(C)C[C@H](NC(=O)[C@H](CC(C)C)NC(=O)[C@@H](Cc1c[nH]c2ccccc12)NC(=O)[C@H](Cc1ccccc1)NC(=O)[C@@H](Cc1c[nH]c2ccccc12)NC(=O)[C@H](CCC(N)=O)NC(=O)[C@H](CCC(N)=O)NC(=O)[C@@H]1CCCN1C(=O)[C@H](CCCCN)NC(=O)[C@@H]1CCCN1C(=O)[C@@H](CCCNC(=N)N)NC(=O)[C@@H]1CCCN1C(=O)CNC(=O)[C@H](CC(C)C)NC(=O)[C@H](CC(C)C)NC(=O)[C@H](Cc1ccc(O)cc1)NC(=O)CNC(=O)[C@H](C)NC(=O)[C@H](CO)NC(=O)[C@H](CC(N)=O)NC(=O)[C@H](CC(C)C)NC(=O)[C@@H](NC(=O)[C@H](Cc1c[nH]c2ccccc12)NC(=O)CN)[C@@H](C)O)C(N)=O [C7, Galanin(1-13)-spantide amide] (H-GWTLNSAGYLLGP[dR]PKPQQ[dW]F[dW]LL-NH2), the “pancreatic myeloperoxidase (MPO) activity” value (shortened to “pancreatic myeloperoxidase”) ([1]; 40 nmol/kg alone) was “produced an increase in pancreatic MPO activity; also recorded: significantly elevated pancreatic MPO activity”.
With CC(C)C[C@H](NC(=O)CNC(=O)[C@H](CC(N)=O)NC(=O)[C@H](CCCCN)NC(=O)[C@H](CC(=O)O)NC(=O)[C@H](CO)NC(=O)[C@H](Cc1ccccc1)NC(=O)[C@H](CO)NC(=O)[C@H](CCCNC(=N)N)NC(=O)[C@H](Cc1cnc[nH]1)NC(=O)[C@H](CC(N)=O)NC(=O)CNC(=O)[C@@H](NC(=O)[C@H](C)NC(=O)[C@H](Cc1cnc[nH]1)NC(=O)[C@@H]1CCCN1C(=O)CNC(=O)[C@H](CC(C)C)NC(=O)[C@H](CC(C)C)NC(=O)[C@H](Cc1ccc(O)cc1)NC(=O)CNC(=O)[C@H](C)NC(=O)[C@H](CO)NC(=O)[C@H](CC(N)=O)NC(=O)[C@H](CC(C)C)NC(=O)[C@@H](NC(=O)[C@H](Cc1c[nH]c2ccccc12)NC(=O)CN)[C@@H](C)O)C(C)C)C(=O)N[C@H](C(=O)N[C@@H](CO)C(=O)O)[C@@H](C)O [Galanin] the plasma amylase activity ([1]; 10 nmol/kg alone, vs baseline) was “did not increase plasma amylase activity above baseline activity”, the plasma lipase activity ([1]; 10 nmol/kg alone, vs baseline) was “did not increase plasma lipase activity above baseline activity” and the “pancreatic myeloperoxidase” value ([1]; 10 nmol/kg alone, vs saline control) was “did not significantly increase pancreatic MPO activity above that measured in saline control”.
In the case of “Galanin 2-29: galanin fragment 2-29 (WTLNSAGYLLGPHAVGNHRSFSDKNGLT; ends and bridges not checked; UniProt P22466 34-61, looked up, fragment)”, the “affinity for GALR2 relative to GALR1” value (GALR2) is given as “higher affinity than GALR1”.
With “Galanin(1-13)-Pro-Pro-Ala-Leu-Ala-Leu-Ala amide (GWTLNSAGYLLGPPPALALA-NH2) [M40]” the “pancreatic acinar cell vacuolization score” value ([2]; 20 nmol/kg) was “significantly reduced”, the “pancreatic myeloperoxidase” value [2, 3] was “significantly reduced” and the “pancreatic acinar cell vacuolization score” value ([2]; 40 nmol/kg) was “significantly reduced”. The “pancreatic myeloperoxidase” value [2, 4] was “significantly reduced”, the pancreatitis-induced plasma hyperenzymemia ([2]; co-treatment, 20 and 40 nmol/kg tested) was “failure to reduce the pancreatitis-induced plasma hyperenzymemia” and the “pancreatic acinar cell necrosis score” value [2, 5] was “without effect”. For the same molecule, the “pancreatic acinar cell vacuolization score” value [2, 5] was “did” and the “pancreatic myeloperoxidase” value [2, 6] was “decreased”.
In the case of “M35: GWTLNSAGYLLGPPPGFSPFR (SEQ ID NO: 15); amino terminal portion of galanin linked to bradykinin”, the “pancreatic myeloperoxidase” value [2, 3] was “significantly reduced”, the “pancreatic acinar cell necrosis score” value ([2]; 40 nmol/kg (high dose), histology scoring system) was “reduced the necrosis score; also recorded: significantly reduced” and the plasma amylase activity [2, 7] was “depressed; also recorded: significantly reduced”. For the same molecule, the plasma lipase activity [2, 7] was “significantly reduced”, the “pancreatic myeloperoxidase” value [2, 4] was “significantly reduced” and the “pancreatic acinar cell vacuolization score” value [2, 5] was “failed to improve the acute pancreatitic-induced vacuolization; also recorded: without effect”. For the same molecule, the “pancreatic myeloperoxidase” value [2, 6] was “decreased”.
